Experimental data reported in patent US9333193B2, “Compositions and methods for treating tuberculosis” (priority 2010, dated 2016).
Values after ≈ are worked out from the molar mass of the structure shown. Like-named read-outs stand apart in the source and are kept apart here.

Columns and labels:
[1] = tested on: Mycobacterium smegmatis mc2155; experiment: Anti-mycobacterial activity of nitazoxanides, MIC in Middlebrook 7H9; format: cell-based; conditions: Middlebrook 7H9, 37° C.; for MIC: Mycolicibacterium smegmatis, MC2155, read-out: Minimal Inhibitory Concentration, M. smegmatis
Experimental: (§1) (1) Strains: Mycobacterium smegmatis mc2155, Mycobacterium chelonae EOP-1, Mycobacterium marinum ATCC 927, Mycobacterium avium Va14(T), and Mycobacterium abscessus AAy-P-1).
(§2) (2) Medium: Middlebrook 7H9 containing 0.5% (vol/vol) glycerol and 10% (vol/vol) oleic acid-albumin.
(§3) (3) Incubation Temperature: 37° C., except M. marinum 30° C.
(§4) (4) Nitazoxanides: Precipitates were present in wells of nitazoxanides with high concentrations (250-31 μg/mL) except for 162080, 162088, 16b2026, and 16b2031.
(5) Decolorization: Almost all the yellow nitazoxanides, namely 16b1090, 16b1092 and 16b1093, 16b1094, 16b2023, 16b2025, and 16b2026 were decolorized by M. smegmatis strain mc2155. None of the other mycobacterial strains decolorized the compounds. Note that the compound numbers are also referred to herein with the prefix VPC.
(§5) The strains used were Mycobacterium smegmatis mc2155, Mycobacterium chelonae EOP-1, Mycobacterium marinum ATCC 927, Mycobacterium avium Va14(T), and Mycobacterium abscessus AAy-P-1. The medium use was Middlebrook 7H9 containing 0.5% (vol/vol) glycerol and 10% (vol/vol) oleic acid-albumin. Incubation Temperature was 37° C., except for M. marinum at 30° C. For nitazoxanides, precipitates were present in wells of nitazoxanides with high concentrations (250-31 μg/mL) except for 162080, 162088, 16b2026, and 16b2031.
Decolorization: Almost all the yellow nitazoxanides, namely 16b1090, 16b1092 and 16b1093, 16b1094, 16b2023, 16b2025, and 16b2026 were decolorized by M. smegmatis strain mc2155. None of the other mycobacterial strains decolorized the compounds.

M. tuberculosis = experiment: microbe, parasite or virus in culture; format: cell-based, Mycobacterium tuberculosis; set-up: % Inhibit growth, H37Rv / % Inhibit growth, Susceptible / % Inhibit growth, MDR / % Inhibit growth, XDR / inhibition: dose or concentration left out as unconfirmed; conditions: for inhibition: Mycobacterium tuberculosis; for % Inhibit growth, MDR: MDR strain; for % Inhibit growth, Susceptible: Susceptible strain; for % Inhibit growth, XDR: XDR strain; for % Inhibit growth, H37Rv: strain H37Rv
[2] = tested on: Mycobacterium avium Va14(T); experiment: Anti-mycobacterial activity of nitazoxanides, MIC in Middlebrook 7H9; format: cell-based; conditions: Middlebrook 7H9, 37° C.; for MIC: Mycobacterium avium, read-out: Minimal Inhibitory Concentration, M. avium
Experimental: as §1, §2, §3, §4, §5

[3] = tested on: Mycobacterium chelonae EOP-1; experiment: as above; format: cell-based; conditions: Middlebrook 7H9, 37° C.; for MIC: read-out: Minimal Inhibitory Concentration, M. chelonae
Experimental: as §1, §2, §3, §4, §5

[4] = tested on: Mycobacterium marinum ATCC 927; experiment: as above; format: cell-based; conditions: Middlebrook 7H9, 30° C.; for MIC: Mycobacterium marinum, ATCC927, read-out: Minimal Inhibitory Concentration, M. marinum
Experimental: as §1, §2, §3, §4, §5

[5] = tested on: Mycobacterium abscessus AAy-P-1; experiment: as above; format: cell-based; conditions: Middlebrook 7H9, 37° C.; for MIC: Mycobacteroides abscessus, AAYP1, read-out: Minimal Inhibitory Concentration, M. abscessus
Experimental: as §1, §2, §3, §4, §5

[6] = tested on: Mycobacterium tuberculosis; experiment: microbe, parasite or virus in culture; conditions: agar proportion
[7] = read-out: % Inhibit growth, MDR
[8] = read-out: % Inhibit growth, XDR

| Compound | MIC [1] [µg/mL] | inhibition (M. tuberculosis; [7]) [%] | inhibition (M. tuberculosis; [8]) [%] | MIC [2] [µg/mL] | MIC [3] [µg/mL] | MIC [4] [µg/mL] | MIC [5] [µg/mL] | % Inhibit growth, MDR (M. tuberculosis; agar proportion method) [%] | % Inhibit growth, Susceptible (M. tuberculosis; agar proportion method) [%] | % Inhibit growth, XDR (M. tuberculosis; agar proportion method) [%] | % Inhibit growth, H37Rv (M. tuberculosis; agar proportion method) [%] | also measured |
| --- | --- | --- | --- | --- | --- | --- | --- | --- | --- | --- | --- | --- |
| O=C(Nc1sc([N+](=O)[O-])cc1[N+](=O)[O-])c1ccoc1 [VPC16b1094] | 16 (≈ 56.5 µM) | 100 | 100 | 16 (≈ 56.5 µM) | 2 (≈ 7.06 µM) | 4 (≈ 14.1 µM) | 2 (≈ 7.06 µM) | – | – | – | – | Potency against M. tuberculosis in words (Table 1) (M. tuberculosis; agar proportion method): most potent; MIC ([6]; H37RV, isolate H37Rv (Reference)): 4000 µg/mL (≈ 14100 µM); MIC ([6]; isolate 234 (MDR-TB)): 4000 µg/mL (≈ 14100 µM); MIC ([6]; isolate 283 (susceptible)): 4000 µg/mL (≈ 14100 µM); MIC ([6]; isolate 565 (MDR-TB)): 4000 µg/mL (≈ 14100 µM); MIC ([6]; isolate 694 (MDR-TB)): 4000 µg/mL (≈ 14100 µM); MIC ([6]; isolate 750 (MDR-TB)): 4000 µg/mL (≈ 14100 µM); MIC ([6]; isolate 823 (XDR-TB)): 4000 µg/mL (≈ 14100 µM); MIC ([6]; isolate 971 (MDR-TB)): 4000 µg/mL (≈ 14100 µM) |
| O=C(Nc1sc([N+](=O)[O-])cc1[N+](=O)[O-])c1cc(C(F)(F)F)ccc1Cl [VPC16b2026, 2-Chloro-N-(3,5-dinitrothiophen-2-yl)-5-(trifluoromethyl)benzamide] | 31 (≈ 78.3 µM) | – | – | 16 (≈ 40.4 µM) | 4 (≈ 10.1 µM) | 8 (≈ 20.2 µM) | 0.25 (≈ 0.632 µM) | – | – | – | – | – |
| NCCOc1ccccc1C(=O)Nc1sc([N+](=O)[O-])cc1[N+](=O)[O-] [VPC16b2031, 2-(2-Aminoethoxy)-N-(3,5-dinitrothiophen-2-yl)benzamide] | 63 (≈ 179 µM) | – | – | 63 (≈ 179 µM) | 125 (≈ 355 µM) | 16 (≈ 45.4 µM) | 250 (≈ 710 µM) | – | – | – | – | – |
| O=C(Nc1ncc([N+](=O)[O-])s1)c1cc2ccccc2s1 [VPC161180] | – | – | – | – | – | – | – | 0 | 0 | 50 | 80 | – |
| O=C(Nc1ncc([N+](=O)[O-])s1)c1cccc(C(F)(F)F)c1 [VPC161183, N-(5-Nitrothiazol-2-yl)-3-(trifluoromethyl)benzamide] | – | 70 | 50 | – | – | – | – | – | – | – | – | – |
| CC(C)(C)OC(=O)Nc1ccccc1C(=O)Nc1ncc([N+](=O)[O-])s1 [VPC162047, tert-Butyl 2-(5-nitrothiazol-2-ylcarbamoyl)phenylcarbamate] | – | 92 | 50 | – | – | – | – | – | – | – | – | – |
| CCCCCC(=O)Nc1nc(Cl)c([N+](=O)[O-])s1 [VPC162080] | – | – | – | – | – | – | – | 95 | 73 | 90 | 90 | Minimal Inhibitory Concentration, M. smegmatis [1]: 125 µg/mL; Minimal Inhibitory Concentration, M. avium [2]: 125 µg/mL; Minimal Inhibitory Concentration, M. chelonae [3]: 16 µg/mL; Minimal Inhibitory Concentration, M. marinum [4]: 16 µg/mL; Minimal Inhibitory Concentration, M. abscessus [5]: 0.25 µg/mL |
| O=C(Nc1nc(Cl)c([N+](=O)[O-])s1)c1ccccc1 [VPC162087] | – | – | – | – | – | – | – | 100 | 97 | 100 | 97 | Minimal Inhibitory Concentration, M. smegmatis [1]: 31 µg/mL; Minimal Inhibitory Concentration, M. avium [2]: 125 µg/mL; Minimal Inhibitory Concentration, M. chelonae [3]: 16 µg/mL; Minimal Inhibitory Concentration, M. marinum [4]: 16 µg/mL; Minimal Inhibitory Concentration, M. abscessus [5]: >250 µg/mL |
| O=C(Nc1nc(Cl)c([N+](=O)[O-])s1)c1cccc(C(F)(F)F)c1 [VPC162088] | 31 (≈ 88.1 µM) | 90 | 70 | 250 (≈ 711 µM) | 63 (≈ 179 µM) | 31 (≈ 88.1 µM) | 0.5 (≈ 1.42 µM) | – | – | – | – | – |
